Test results reported in patent US7589078B2, “Anti-viral nucleoside analogs and methods for treating viral infections, especially HIV infections” (Yale University, priority 2003, dated 2009).
Like-named read-outs stand apart in the source and are kept apart here.

Tests used:
thymidine kinase (TK-1) [1] = biological target: T1, thymidine kinase (TK-1) (Homo sapiens, UniProt P04183); experiment: Thymidine kinase assay with added nucleoside ([14C]-dThd to dTMP); settings: [14C]-dThd 25 μM, added nucleoside 250 μM; compared to reactions with no additions
T1 sequence (P04183 1-234): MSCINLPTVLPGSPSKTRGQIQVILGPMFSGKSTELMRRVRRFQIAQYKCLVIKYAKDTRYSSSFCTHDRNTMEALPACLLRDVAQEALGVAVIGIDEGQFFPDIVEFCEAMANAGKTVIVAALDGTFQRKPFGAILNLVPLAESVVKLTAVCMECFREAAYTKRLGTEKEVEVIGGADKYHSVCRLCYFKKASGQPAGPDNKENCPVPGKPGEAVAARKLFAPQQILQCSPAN
Description: After two additional washes in ethanol, the discs were dried and placed in scintillation vials that contained 5 ml SafeScint Scintillation Cocktail (American Bioanalytical, Natick, Mass.). The amount of radioactivity, which represents the amount of dTMP formed, was quantitated in a Beckman LS5000TD Scintillation Counter (Beckman Instruments Inc., Palo Alto, Calif.).

CEM cells = experiment: Cellular toxicity in CEM cells (cell counts); settings: for IC50: read-out: Cellular ID50
Description: The basic procedures are similar. The cells are seeded a low concentration, then serial dilutions of test compound are added. […] After 48 to 96 h incubation at 37° C. in a 5% CO2 humidified incubator the assay is ended. The drug treated samples are compared to the untreated controls. This is accomplished in suspension cell lines by counting cell numbers either with a hemocytometer or by using a Coulter Counter.
The numbers in parentheses represent the mean and standard deviations of percentage of untreated CEM control cells at the concentration indicated.

thymidine kinase (TK-1) [2] = biological target: T1, thymidine kinase (TK-1); experiment: Monophosphorylation of analogs by thymidine kinase; assay type: biochemical; design: phosphorylated by thymidine kinase (TK-1) from CEM cells; endogenous in cells; settings: for Relative Vmax: 250 μM dThd or analog, 2.4 mM ATP, 0.07 unit TK-1, 37° C., 285 min, dThd = 100
Description: Monophosphorylation of Analogs by Thymidine Kinase: All the analogs were tested for their ability to be phosphorylated by thymidine kinase (TK-1) from CEM cells. This enzyme was purified by an affinity column technique developed in this laboratory (7). […] At the end of the incubation time the reaction was stopped by the addition of 3 parts cold HPLC grade methanol. After incubating on ice for at least 10 min. the methanol insoluble material is precipitated by centrifugation and the methanol soluble supernatants were placed into clean microfuge tubes. These samples were brought to dryness in a Speedvac Centrifuge. The samples were dissolved in water and separated on a Shimatzu HPLC model SCL 10Avp using a gradient of water to 300 mM potassium phosphate and a Whatman 10/25 particle SAX column. Km and relative Vmax studies were done in a similar fashion, using the same mixture and different amounts of substrate and enzyme.

[3] = tested on: mtDNA content of CEM cells; experiment: Mitochondrial DNA content in CEM cells (Southern blot); assay type: cell-based; settings: for IC50: four days, read-out: Mitochondrial DNA Content ID50
Description: Mitochondrial DNA: The effect of nucleoside analogs on mtDNA content was assessed as described previously (2). […] Cells treated with drugs at various concentrations either as single agents or in combination were grown for four days. Cells were then harvested, treated with proteinase K and DNase free RNase. Extracts were applied to nylon membranes and hybridized with an mtDNA probe. After stripping the membrane the load was normalized by rehybridizing the membrane with an Alu probe. Blots were quantitated with a Molecular Dynamics personal densitometer SI with ImageQuaNT analysis software.

HIV-1 strain IIIB [4] = experiment: Antiviral activity in MT-2 cells infected with HIV-1 strain IIIB (MTT); assay type: cell-based
Description: Determination of antiviral activity: Compounds were tested in MT-2 cells infected with HIV-1 strain IIIB essentially as described previously (31). […]. Calculations of the percent protection and isobologram combination studies are described (12).

MT-2 cells = experiment: Cellular toxicity, MT-2 cell growth; assay type: cell-based; settings: MT-2 cells; read-out: ID50: concentration required to inhibit MT-2 cell growth by 50%
Source text: (§1) The basic procedures are similar.

[5] = biological target: T2, thymidine phosphorylase (TP) (Homo sapiens, UniProt P19971); experiment: Thymidine phosphorylase assay; assay type: in vitro ADME; settings: partially purified TP from human liver, 100 μM nucleoside, 37° C., FIG. 11
T2 construct: using a partially purified prepartion of human liver extract (28) as a source of the thymidine phosphorylase (TP); from tissue; host or cells: human liver extract, partially purified
T2 sequence (P19971 11-482): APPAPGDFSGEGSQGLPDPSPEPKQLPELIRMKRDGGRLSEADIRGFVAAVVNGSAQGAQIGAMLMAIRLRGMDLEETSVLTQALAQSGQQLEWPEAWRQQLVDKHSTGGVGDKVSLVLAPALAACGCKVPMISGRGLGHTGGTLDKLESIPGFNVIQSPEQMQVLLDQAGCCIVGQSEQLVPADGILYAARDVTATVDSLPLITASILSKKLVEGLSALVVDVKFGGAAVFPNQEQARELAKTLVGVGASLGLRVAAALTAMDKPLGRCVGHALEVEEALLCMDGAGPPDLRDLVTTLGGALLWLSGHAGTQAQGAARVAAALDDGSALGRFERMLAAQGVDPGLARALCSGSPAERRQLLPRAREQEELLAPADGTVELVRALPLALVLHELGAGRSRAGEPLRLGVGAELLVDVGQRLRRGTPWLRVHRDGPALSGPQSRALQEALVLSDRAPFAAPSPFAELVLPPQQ
Description: Thymidine Phosphorylase Assays: Nucleoside analogs (100 μM) were incubated in 75 mM potassium phosphate buffer pH 7.3 at 37° C. using a partially purified prepartion of human liver extract (28) as a source of the thymidine phosphorylase (TP). After incubation, the reaction was stopped by the addition of trichloroacetic acid to a final concentration of 15%. The samples were then incubated on ice. After the acid insoluble components were removed by centrifugation, the supernatant was neutralized by two extractions with one half volume of trioctylamine/freon (45:55). The aqueous supernatants were examined by HPLC using the Beckman ODS column method, as described in Acid Stability Studies.

HIV-1 strain IIIB [6] = settings: MT-2 cells; EC50 reported previously (17); read-out: EC50: effective concentration required to achieve 50% protection from HIV in MT-2 cells; cited from earlier work
H-9 cells = experiment: Toxicity in H-9 cells alone and in combination (Coulter Counter); assay type: cell-based; settings: H-9 cells, 48 h
Source text: as §1

[7] = CEM cells, four day cell growth, cell counts vs untreated controls
[8] = MT-2 cells, HIV-1 IIIB, read-out: EC50: effective concentration required to achieve 50% protection from HIV in MT-2 cells
[9] = Human immunodeficiency virus 1, MT2, MT-2/HIV IIIB system, FIG. 10, read-out: EC50 for single agents (isobologram study)

SMILES	Percent of Activity (thymidine kinase (TK-1) [1])	Relative Vmax (thymidine kinase (TK-1) [2])	EC50 (HIV-1 strain IIIB [4]; [8])	Cell count, percentage of untreated CEM control cells (CEM cells; CEM cells, at 100 μM)	IC50 (CEM cells; [7])	IC50 (MT-2 cells)	also measured
Cc1cn([C@H]2C=C[C@@](C#N)(CO)O2)c(=O)[nH]c1=O [4′-cyano D4T]	71.8 ± 8.2%	1.1 ± 0.2	7 ± 2.6 µM	60 ± 1%	> 100 µM	> 100 µM	Mitochondrial DNA content, percentage of untreated CEM control cells ([3]; at 100 μM): 264 ± 23%; IC50 [3]: > 100 µM; Anti-HIV activity compared with D4T (HIV-1 strain IIIB [4]; MT-2/IIIB anti HIV-1 system, FIG. 8): less active than D4T
Nc1ccn([C@H]2CC[C@@H](CO)O2)c(=O)n1 [ddC, 2′,3′-dideoxycytidine, reference compound]	–	–	–	–	–	–	IC50 (CEM cells; Homo sapiens, CCRF-CEM, 96 h): 5.5 ± 1.8 µM; IC50 ([3]; Homo sapiens, CCRF-CEM, 96 h): 0.15 ± 0.12 µM
Cc1cn([C@H]2C[C@H](O)[C@@H](CO)O2)c(=O)[nH]c1=O [dThd]	–	–	–	–	–	–	Break down by thymidine phosphorylase [5]: broke down very quickly
Nc1nc(=O)n([C@@H]2C=C[C@H](CO)O2)cc1F [LFd4C, β-L-2′,3′-dideoxy-2′,3′-didehydro-5-fluorocytidine, reference compound]	–	–	–	–	–	–	Percent of Untreated Controls (H-9 cells; 5 μM LFd4C alone): 73 ± 9%; Percent of Untreated Controls (H-9 cells; 10 μM LFd4C alone): 56 ± 4%; EC50 (HIV-1 strain IIIB [4]; [9]): 0.18 µM
Nc1ccn([C@@H]2CS[C@H](CO)O2)c(=O)n1 [3TC, β-L-2′,3′-dideoxy-3′-thiacytidine, reference compound]	–	–	–	–	–	–	Percent of Untreated Controls (H-9 cells; 5 μM 3TC alone): 99 ± 3%; Percent of Untreated Controls (H-9 cells; 20 μM 3TC alone): 94 ± 3%; Percent of Untreated Controls (H-9 cells; 100 μM 3TC alone): 108 ± 12%; Cell count, percentage of untreated CEM control cells (CEM cells; CEM cells, at 200 μM): 77 ± 28%; IC50 (CEM cells; Homo sapiens, CCRF-CEM, 96 h): > 200 µM; IC50 ([3]; Homo sapiens, CCRF-CEM, 96 h): > 200 µM; Mitochondrial DNA content, percentage of untreated CEM control cells ([3]; at 200 μM): 114 ± 2%; EC50 (HIV-1 strain IIIB [4]; [9]): 1 µM
Cc1cn([C@H]2C[C@H](N=[N+]=[N-])[C@@H](CO)O2)c(=O)[nH]c1=O [AZT, 3′-Azido-3′-deoxythymidine, reference compound]	5.4 ± 2.3%	55.5 ± 9.7	–	–	–	–	Rate of phosphorylation by TK-1, in words (thymidine kinase (TK-1) [2]; purified human TK-1): half as fast as dThd

Further lines, with some results ahead:

Percent of Activity (thymidine kinase (TK-1) [1])	Relative Vmax (thymidine kinase (TK-1) [2])	EC50 (HIV-1 strain IIIB [4]; [8])	SMILES	Cell count, percentage of untreated CEM control cells (CEM cells; CEM cells, at 100 μM)	IC50 (CEM cells; [7])	IC50 (MT-2 cells)	also measured
99.5 ± 6.9%	1.8 ± 0.5	–	C=C[C@@]1(CO)C=C[C@H](n2cc(C)c(=O)[nH]c2=O)O1 [4′-vinyl D4T]	78 ± 21%	> 100 µM	> 100 µM	EC50 (HIV-1 strain IIIB [6]): > 100 µM; Rate of conversion to the monophosphate form (thymidine kinase (TK-1) [2]; purified human TK-1): approximately 2% of dThd
53.2 ± 9.2%	3.9 ± 1.0	> 100 µM	Cc1cn([C@H]2C=C[C@@](C#CCl)(CO)O2)c(=O)[nH]c1=O [4′-ethynylchloro D4T]	–	62.6 ± 10 µM	63.3 ± 20.8 µM	–
110.8 ± 9.0%	0.4 ± 0.2	> 100 µM	C=CC[C@@]1(CO)C=C[C@H](n2cc(C)c(=O)[nH]c2=O)O1 [4′-allyl D4T]	–	> 100 µM	> 100 µM	–
103.8 ± 9.9%	1.6 ± 0.5	–	Cc1cn([C@H]2C=C[C@@](C)(CO)O2)c(=O)[nH]c1=O [4′-methyl D4T]	114 ± 2%	> 100 µM	> 100 µM	EC50 (HIV-1 strain IIIB [6]): > 100 µM; Rate of conversion to the monophosphate form (thymidine kinase (TK-1) [2]; purified human TK-1): approximately 2% of dThd
